Experiments:
NS3-NS4A protease = target: T1, NS3-NS4A protease (Hepatitis C virus genotype 1a, UniProt P27958); assay: NS3-NS4A protease assay (NS3 inhibition assay, RETS1 substrate), Section B; format: biochemical; conditions: read-out: NS3-NS4A IC50
T1 construct: Recombinant E. coli or Baculovirus full-length NS3 was diluted to 3.33 μM with assay buffer; made in house; host or cells: E. coli or baculovirus (BV) system
Summary of the method: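 Kinetic fluorescence read (335 nm excitation, 495 nm emission, 30 min) of RETS1 cleavage by NS3/NS4A-2 complex, 2 nM E. coli or 3 nM baculovirus NS3, after 10 min room-temperature compound pre-incubation. Four-parameter-fit IC50s converted to Ki by Cheng–Prusoff, Ki=IC50/(1+[S]/Km).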

[1] = test system: HCV sub-genomic replicon, GS4.3; assay: Quantitation by ELISA of NPTII in the HCV sub-genomic replicon, GS4.3, Section B; format: cell-based; conditions: Hepatitis C virus; GS4.3 cells, 72 h incubation; read-out: Replicon EC50
Summary of the method: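 NPTII marker protein in lysates was quantified by ELISA read at 450 nm after 72 h inhibitor exposure (3-fold series, final DMSO 1%, G418-free medium) of HuH-7 cells stably harbouring the subgenomic HCV replicon. Values relative to DMSO-treated controls; 4-parameter curves gave EC50.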

T1 sequence (P27958 1027-1657): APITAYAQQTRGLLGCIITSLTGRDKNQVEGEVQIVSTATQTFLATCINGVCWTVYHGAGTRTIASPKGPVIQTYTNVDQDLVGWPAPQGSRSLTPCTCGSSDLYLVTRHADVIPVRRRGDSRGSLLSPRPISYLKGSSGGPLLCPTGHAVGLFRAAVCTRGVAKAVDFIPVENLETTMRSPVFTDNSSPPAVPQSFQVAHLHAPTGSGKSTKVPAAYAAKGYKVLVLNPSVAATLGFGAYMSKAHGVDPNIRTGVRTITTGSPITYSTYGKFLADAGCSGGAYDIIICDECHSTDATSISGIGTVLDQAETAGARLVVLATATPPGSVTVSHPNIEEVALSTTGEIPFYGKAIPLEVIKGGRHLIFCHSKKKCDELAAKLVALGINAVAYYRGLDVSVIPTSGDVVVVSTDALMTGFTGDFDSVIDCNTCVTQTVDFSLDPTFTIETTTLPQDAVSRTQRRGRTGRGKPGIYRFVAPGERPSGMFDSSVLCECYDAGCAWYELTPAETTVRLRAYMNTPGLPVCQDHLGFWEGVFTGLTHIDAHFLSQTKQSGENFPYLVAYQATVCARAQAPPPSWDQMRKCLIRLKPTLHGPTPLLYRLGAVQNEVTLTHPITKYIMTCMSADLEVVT

| Structure (SMILES) | IC50 (NS3-NS4A protease) [nM] | EC50 [1] [nM] |
| --- | --- | --- |
| CC(C)(C)OC(=O)N[C@H]1CCCCCC=C[C@@H]2C[C@@]2(C(=O)NS(=O)(=O)C2CC2)NC(=O)[C@@H]2C[C@@H](OC(=O)N3Cc4ccccc4C(C)(C)C3)CN2C1=O [AR00312025, (1S,4R,6S,14S,18R)-4,4-Dimethyl-3,4-dihydro-1H-isoquinoline-2-carboxylic acid 14-tert-butoxycarbonylamino-4-cyclopropanesulfonylaminocarbonyl-2,15-dioxo-3,16-diaza-tricyclo[14.3.0.0^4,6]nonadec-7-en-18-yl ester] | < 100 | < 100 |
| CCNC(=O)c1ccc2c(c1)CN(C(=O)O[C@@H]1C[C@H]3C(=O)N[C@]4(C(=O)NS(=O)(=O)C5CC5)C[C@H]4/C=C\CCCCC[C@H](NC(=O)OC(C)(C)C)C(=O)N3C1)C2 [AR00365252, (1S,4R,6S,14S,18R)-5-Ethylcarbamoyl-1,3-dihydro-isoindole-2-carboxylic acid 14-tert-butoxycarbonylamino-4-cyclopropanesulfonylaminocarbonyl-2,15-dioxo-3,16-diaza-tricyclo[14.3.0.0^4,6]nonadec-7-en-18-yl ester] | < 100 | < 1000 |
| CC(C)(C)OC(=O)N[C@H]1CCCCCC=C[C@@H]2C[C@@]2(C(=O)O)NC(=O)[C@@H]2C[C@@H](OC(=O)N3Cc4ccccc4C(C)(C)C3)CN2C1=O [AR00304066, (1S,4R,6S,14S,18R)-14-tert-Butoxycarbonylamino-18-(4,4-dimethyl-3,4-dihydro-1H-isoquinoline-2-carbonyloxy)-2,15-dioxo-3,16-diaza-tricyclo[14.3.0.0^4,6]nonadec-7-ene-4-carboxylic acid] | < 1000 | < 10000 |
| O=C(N[C@H]1CCCCC/C=C\[C@@H]2C[C@@]2(C(=O)NS(=O)(=O)C2CC2)NC(=O)[C@@H]2C[C@@H](OC(=O)N3Cc4ccc(Cl)cc4C3)CN2C1=O)OCCF [AR00334222, (1S,4R,6S,14S,18R)-5-Chloro-1,3-dihydro-isoindole-2-carboxylic acid 4-cyclopropanesulfonylaminocarbonyl-14-(2-fluoro-ethoxycarbonylamino)-2,15-dioxo-3,16-diaza-tricyclo[14.3.0.0^4,6]nonadec-7-en-18-yl ester] | < 100 | < 100 |
| CC(C)(C)OC(=O)N[C@H]1CCCCC/C=C\[C@@H]2C[C@@]2(C(=O)O)NC(=O)[C@@H]2C[C@@H](OC(=O)N3Cc4cc(Cl)c(Cl)cc4C3)CN2C1=O [AR00315999, (1S,4R,6S,14S,18R)-14-tert-Butoxycarbonylamino-18-(5,6-dichloro-1,3-dihydro-isoindole-2-carbonyloxy)-2,15-dioxo-3,16-diaza-tricyclo[14.3.0.0^4,6]nonadec-7-ene-4-carboxylic acid] | < 1000 | < 10000 |
| CC(C)(C)NC(=O)N[C@H]1CCCCC/C=C\[C@@H]2C[C@@]2(C(=O)NS(=O)(=O)C2CC2)NC(=O)[C@@H]2C[C@@H](OC(=O)N3Cc4cccc(F)c4C3)CN2C1=O [AR00338066, (1S,4R,6S,14S,18R)-4-Fluoro-1,3-dihydro-isoindole-2-carboxylic acid 14-(3-tert-butyl-ureido)-4-cyclopropanesulfonylaminocarbonyl-2,15-dioxo-3,16-diaza-tricyclo[14.3.0.0^4,6]nonadec-7-en-18-yl ester] | < 100 | < 100 |
| CC(C)(C)OC(=O)N[C@H]1CCCCC/C=C\[C@@H]2C[C@@]2(C(=O)NS(=O)(=O)C2CC2)NC(=O)[C@@H]2C[C@@H](OC(=O)N3Cc4ccc(OCCN5CCOCC5)cc4C3)CN2C1=O [AR00345090, (1S,4R,6S,14S,18R)-5-(2-Morpholin-4-yl-ethoxy)-1,3-dihydro-isoindole-2-carboxylic acid 14-tert-butoxycarbonylamino-4-cyclopropanesulfonylaminocarbonyl-2,15-dioxo-3,16-diaza-tricyclo[14.3.0.0^4,6]nonadec-7-en-18-yl ester] | < 100 | < 100 |
| CC(C)(C)OC(=O)N[C@H]1CCCCC/C=C\[C@@H]2C[C@@]2(C(=O)O)NC(=O)[C@@H]2C[C@@H](OC(=O)N3Cc4ccccc4C3)CN2C1=O [AR00291871, (1S,4R,6S,14S,18R)-14-tert-Butoxycarbonylamino-18-(1,3-dihydro-isoindole-2-carbonyloxy)-2,15-dioxo-3,16-diaza-tricyclo[14.3.0.0^4,6]nonadec-7-ene-4-carboxylic acid] | < 100 | < 1000 |
| CC(C)(C)OC(=O)N[C@H]1CCCCC/C=C\[C@@H]2C[C@@]2(C(=O)NS(=O)(=O)C2CC2)NC(=O)[C@@H]2C[C@@H](OC(=O)N3CCc4cc(C(F)(F)F)ccc4C3)CN2C1=O [AR00301747, (1S,4R,6S,14S,18R)-6-Trifluoromethyl-3,4-dihydro-1H-isoquinoline-2-carboxylic acid 14-tert-butoxycarbonylamino-4-cyclopropanesulfonylaminocarbonyl-2,15-dioxo-3,16-diaza-tricyclo[14.3.0.0^4,6]nonadec-7-en-18-yl ester] | < 100 | < 100 |
| CC(C)(C)OC(=O)N[C@H]1CCCCC/C=C\[C@@H]2C[C@@]2(C(=O)NS(=O)(=O)C2CC2)NC(=O)[C@@H]2C[C@@H](OC(=O)N3Cc4ccc(C#N)cc4C3)CN2C1=O [AR00365082, (1S,4R,6S,14S,18R)-5-Cyano-1,3-dihydro-isoindole-2-carboxylic acid 14-tert-butoxycarbonylamino-4-cyclopropanesulfonylaminocarbonyl-2,15-dioxo-3,16-diaza-tricyclo[14.3.0.0^4,6]nonadec-7-en-18-yl ester] | < 100 | < 1000 |
| O=C(NC1CCCC1)N[C@H]1CCCCC/C=C\[C@@H]2C[C@@]2(C(=O)O)NC(=O)[C@@H]2C[C@@H](OC(=O)N3Cc4ccccc4C3)CN2C1=O [AR00304079, (1S,4R,6S,14S,18R)-14-(3-Cyclopentyl-ureido)-18-(1,3-dihydro-isoindole-2-carbonyloxy)-2,15-dioxo-3,16-diaza-tricyclo[14.3.0.0^4,6]nonadec-7-ene-4-carboxylic acid] | < 100 | < 1000 |
| CC(C)(C)OC(=O)N[C@H]1CCCCC/C=C\[C@@H]2C[C@@]2(C(=O)NS(=O)(=O)C2CC2)NC(=O)[C@@H]2C[C@@H](OC(=O)N3Cc4ccc(N5CCOCC5)cc4C3)CN2C1=O [AR00340494, (1S,4R,6S,14S,18R)-5-Morpholin-4-yl-1,3-dihydro-isoindole-2-carboxylic acid 14-tert-butoxycarbonylamino-4-cyclopropanesulfonylaminocarbonyl-2,15-dioxo-3,16-diaza-tricyclo[14.3.0.0^4,6]nonadec-7-en-18-yl ester] | < 100 | < 100 |
| CC(C)(C)OC(=O)N[C@H]1CCCCC/C=C\[C@@H]2C[C@@]2(C(=O)NS(=O)(=O)c2ccc([N+](=O)[O-])cc2)NC(=O)[C@@H]2C[C@@H](OC(=O)N3Cc4ccccc4C3)CN2C1=O [AR00334249, (1S,4R,6S,14S,18R)-1,3-Dihydro-isoindole-2-carboxylic acid 14-tert-butoxycarbonylamino-4-(4-nitro-benzenesulfonylaminocarbonyl)-2,15-dioxo-3,16-diaza-tricyclo[14.3.0.0^4,6]nonadec-7-en-18-yl ester] | < 100 | < 1000 |
| CC(C)(C)OC(=O)N[C@H]1CCCCC/C=C\[C@@H]2C[C@@]2(C(=O)O)NC(=O)[C@@H]2C[C@@H](OC(=O)N3CCc4ccccc43)CN2C1=O [AR00291875, (1S,4R,6S,14S,18R)-14-tert-Butoxycarbonylamino-18-(2,3-dihydro-indole-1-carbonyloxy)-2,15-dioxo-3,16-diaza-tricyclo[14.3.0.0^4,6]nonadec-7-ene-4-carboxylic acid] | < 1000 | < 10000 |
| CC(C)NCCOc1ccc2c(c1)CN(C(=O)O[C@@H]1C[C@H]3C(=O)N[C@]4(C(=O)NS(=O)(=O)C5CC5)C[C@H]4/C=C\CCCCC[C@H](NC(=O)OC(C)(C)C)C(=O)N3C1)C2 [AR00345094, (1S,4R,6S,14S,18R)-5-(2-Isopropylamino-ethoxy)-1,3-dihydro-isoindole-2-carboxylic acid 14-tert-butoxycarbonylamino-4-cyclopropanesulfonylaminocarbonyl-2,15-dioxo-3,16-diaza-tricyclo[14.3.0.0^4,6]nonadec-7-en-18-yl ester] | < 100 | < 100 |
| CC(C)(C)OC(=O)N[C@H]1CCCCC/C=C\[C@@H]2C[C@@]2(C(=O)NS(=O)(=O)C2CC2)NC(=O)[C@@H]2C[C@@H](OC(=O)N3CCc4cccc(C(F)(F)F)c4C3)CN2C1=O [AR00298997, (1S,4R,6S,14S,18R)-8-Trifluoromethyl-3,4-dihydro-1H-isoquinoline-2-carboxylic acid 14-tert-butoxycarbonylamino-4-cyclopropanesulfonylaminocarbonyl-2,15-dioxo-3,16-diaza-tricyclo[14.3.0.0^4,6]nonadec-7-en-18-yl ester] | < 100 | < 100 |
| O=C(N[C@H]1CCCCC/C=C\[C@@H]2C[C@@]2(C(=O)NS(=O)(=O)C2CC2)NC(=O)[C@@H]2C[C@@H](OC(=O)N3CCc4ccccc4C3)CN2C1=O)OC1CCCC1 [AR00282131, (1S,4R,6S,14S,18R)-3,4-Dihydro-1H-isoquinoline-2-carboxylic acid 14-cyclopentyloxycarbonylamino-4-cyclopropanesulfonylaminocarbonyl-2,15-dioxo-3,16-diaza-tricyclo[14.3.0.0^4,6]nonadec-7-en-18-yl ester] | < 100 | < 100 |
